From ChEMBL document CHEMBL1144431, “6-Hydroxy-1,2,3,4-tetrahydro-isoquinoline-3-carboxylic acid mimics active conformation of tyrosine in opioid peptides” (Bioorg Med Chem Lett, 2005)
Residues, ends and D or L forms follow the SMILES beside them.

What was measured:
[1] = molecular target: Mu-type opioid receptor (Rattus norvegicus, UniProt P33535); assay: Inhibition of [3H]naloxone binding to rat brain homogenate Opioid receptor mu
[2] = molecular target: Delta-type opioid receptor (Rattus norvegicus, UniProt P33533); assay: Inhibition of [3H]naloxone binding to rat brain homogenate Opioid receptor delta
Sequence of Delta-type opioid receptor (P33533 whole entry): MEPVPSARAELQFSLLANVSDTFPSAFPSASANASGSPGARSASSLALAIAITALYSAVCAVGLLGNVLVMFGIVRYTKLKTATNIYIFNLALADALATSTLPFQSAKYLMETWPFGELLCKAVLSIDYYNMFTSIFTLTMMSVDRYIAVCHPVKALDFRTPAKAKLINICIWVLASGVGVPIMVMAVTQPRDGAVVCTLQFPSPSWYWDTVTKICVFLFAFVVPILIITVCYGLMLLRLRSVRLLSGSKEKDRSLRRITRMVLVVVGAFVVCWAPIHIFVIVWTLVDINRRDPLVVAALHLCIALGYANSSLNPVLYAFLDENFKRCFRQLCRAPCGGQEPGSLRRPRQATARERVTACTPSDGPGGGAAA

Sequence of Mu-type opioid receptor (P33535 whole entry): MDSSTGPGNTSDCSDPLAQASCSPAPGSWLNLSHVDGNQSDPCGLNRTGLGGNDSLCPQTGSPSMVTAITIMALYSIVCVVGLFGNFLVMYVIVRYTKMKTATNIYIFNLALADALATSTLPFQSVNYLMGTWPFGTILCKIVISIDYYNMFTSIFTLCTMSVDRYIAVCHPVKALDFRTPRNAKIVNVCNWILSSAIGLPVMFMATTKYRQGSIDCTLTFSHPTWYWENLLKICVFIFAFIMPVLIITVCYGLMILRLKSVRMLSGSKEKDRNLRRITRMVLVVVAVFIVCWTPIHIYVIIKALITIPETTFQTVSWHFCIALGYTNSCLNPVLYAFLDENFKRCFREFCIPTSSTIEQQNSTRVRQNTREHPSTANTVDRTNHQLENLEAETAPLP

CC(C)[C@H](NC(=O)[C@H](CC(=O)O)NC(=O)[C@H](Cc1ccccc1)NC(=O)[C@@H](C)NC(=O)[C@@H]1Cc2cc(O)ccc2CN1)C(=O)N[C@H](C(=O)NCC(N)=O)C(C)C
Ki [1]: > 10000 nM
Ki [2]: 10.4 nM

C[C@@H](NC(=O)[C@@H]1Cc2ccc(O)cc2CN1)C(=O)N[C@@H](Cc1ccccc1)C(=O)NCC(=O)N[C@@H](Cc1ccc(O)cc1)C(=O)N1CCC[C@H]1C(=O)N[C@@H](CO)C(N)=O
Ki [1]: 1620 nM
Ki [2]: > 10000 nM

C[C@@H](NC(=O)[C@@H]1Cc2cc(O)ccc2CN1)C(=O)N[C@@H](Cc1ccccc1)C(=O)NCC(=O)N[C@@H](Cc1ccc(O)cc1)C(=O)N1CCC[C@H]1C(=O)N[C@@H](CO)C(N)=O
Ki [1]: 253 nM
Ki [2]: > 10000 nM

C[C@@H](NC(=O)[C@@H]1Cc2cc(O)ccc2CN1)C(=O)N[C@@H](Cc1ccccc1)C(=O)N[C@@H](Cc1ccccc1)C(N)=O
Ki [1]: 57.8 nM
Ki [2]: > 10000 nM

CC(C)[C@H](NC(=O)[C@H](CC(=O)O)NC(=O)[C@H](Cc1ccccc1)NC(=O)[C@@H](C)NC(=O)[C@@H]1Cc2ccc(O)cc2CN1)C(=O)N[C@H](C(=O)NCC(N)=O)C(C)C
Ki [1]: > 10000 nM
Ki [2]: 304 nM

NC(=O)[C@H](Cc1ccccc1)NC(=O)[C@H](Cc1ccccc1)NC(=O)[C@@H]1CCCN1C(=O)[C@@H]1Cc2cc(O)ccc2CN1
Ki [1]: 216 nM
Ki [2]: > 10000 nM

C[C@@H](NC(=O)[C@@H](N)Cc1ccc(O)cc1)C(=O)N[C@@H](Cc1ccccc1)C(=O)N[C@@H](Cc1ccccc1)C(N)=O (HELM PEPTIDE1{Y.[dA].F.F.[am]}$$$$V2.0)
Ki [2]: 1820 nM

CC(C)[C@H](NC(=O)[C@H](CC(=O)O)NC(=O)[C@H](Cc1ccccc1)NC(=O)[C@@H](C)NC(=O)[C@@H](N)Cc1ccc(O)cc1)C(=O)N[C@H](C(=O)NCC(N)=O)C(C)C [DELTORPHIN C]
Ki [1]: 1700 nM
Ki [2]: 0.73 nM

C[C@@H](NC(=O)[C@@H](N)Cc1ccc(O)cc1)C(=O)N[C@@H](Cc1ccccc1)C(=O)NCC(=O)N[C@@H](Cc1ccc(O)cc1)C(=O)N1CCC[C@H]1C(=O)N[C@@H](CO)C(N)=O [DERMORPHIN]
Ki [1]: 2.4 nM
